Measurements published in patent US20120010179A1, “Methods of using a thiazole derivative” (priority 2006, published 2012).

Tested on: patients with COPD
Experiment: Pharmacodynamic and safety assessments (ECG, vital signs, serum potassium, adverse events, laboratory), Example 1
Assay type: in vivo, human
Description: Twelve-lead electrocardiograms (ECGs) were conducted after the subject had been resting and supine for ≧3 minutes. In addition to screening and pre-treatment baseline (Day 0) measurements, ECGs were also recorded at specific times during the treatment period. All 12-lead ECG monitors used for this study were calibrated and standardized. The ventricular rate, PR interval (the time elapsing between the beginning of the P wave and the beginning of the QRS interval in an electrocardiogram, corresponding to the electrical activity through the atria), QRS interval (the movement of electrical impulses through the ventricles), QT/QTc interval (the QT interval measures the time between the start of the Q wave and the end of the T wave in the heart's electrical cycle; QTc is a corrected QT interval, as determined by Fridericia's formula [QTcF] and Bazett's formula [QTcB]), and the overall ECG interpretation (normal or abnormal) were documented. Measurements were recorded prior to collection of any blood samples, where applicable. At least three original copies of each ECG (one each for the site, for the sponsor, and for the central ECG provider) were made. […]
Vital signs (heart rate and systolic blood pressure) were measured after the subject had been sitting for ≧3 minutes. […] Measurements were recorded prior to the collection of any blood samples, where applicable. […]

CCOc1ccc(-c2nc(-c3cccc(C(=O)O)n3)cs2)cc1OCC [Tetomilast, 2-(3,4-diethoxyphenyl)-4-(2-carboxy-6-pyridyl)thiazole]
differences in adverse events, serum chemistry, hematology, or urinalysis versus placebo (oral tetomilast with inhaled albuterol): no clinically meaningful differences | changes in heart rate, systolic blood pressure, serum potassium, or QT interval versus placebo (oral tetomilast with relatively high doses of inhaled albuterol): No clinically meaningful changes
